The results in this text go back to ChEMBL document CHEMBL5321285 (J Med Chem, 2023).

Activity calls are given as the source filed them. The calls are words filed in the database; no cut-off is given here.

For orientation: Ki means the dissociation constant of the complex between target and ligand, obtained from inhibition or displacement. The IC50 is the concentration needed to halve the response being measured.

The nature of data set [1]: Metabolic stability in rat liver microsome assessed as parent compound remaining at 1 uM measured after 1 hr in presence of NADPH regenerating system by UPLC-MS/MS analysis. The class given is ADME. To be noted: liver microsomes, read-out: Stability. For orientation: Microsomes from liver hold many membrane-bound enzymes, among them those of drug oxidation.
Data set [2] has as its target T1, Sigma non-opioid intracellular receptor 1 (Homo sapiens, UniProt Q99720). The experiment in a line: Displacement of [3H]-(+)-pentazocine from human sigma1 receptor transfected in HEK293 cell membranes assessed as inhibition constant incubated for 120 mins in presence of haloperidol by microbeta scintillation counter analysis. Also on record: species or system Cell membrane. Background: Loss of bound radioactivity is the signal in a displacement assay; it reports binding, not function.

For data set [3], the target named is T2, Sigma intracellular receptor 2 (Homo sapiens, UniProt Q5BJF2). The data set can be described thus: Binding affinity to sigma2 receptor (unknown origin) assessed as inhibition constant.
T2 sequence (Q5BJF2 whole entry): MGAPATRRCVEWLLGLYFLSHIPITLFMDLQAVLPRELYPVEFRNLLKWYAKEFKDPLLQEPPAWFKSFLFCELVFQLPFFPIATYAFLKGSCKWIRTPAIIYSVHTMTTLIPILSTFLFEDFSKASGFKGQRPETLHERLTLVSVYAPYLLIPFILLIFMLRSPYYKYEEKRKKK
Data set [4] is described as follows: Metabolic stability in human liver microsome assessed as parent compound remaining at 1 uM measured after 1 hr in presence of NADPH regenerating system by UPLC-MS/MS analysis. The format is ADME. To be noted: liver microsomes, read-out: Stability.
A further data set is filed under the species Homo sapiens. The experiment in a line: Selectivity ratio of Ki for displacement of [3H]-(+)-pentazocine from human sigma1 receptor transfected in HEK293 cell membranes assessed as inhibition constant to Ki for displacement of [3H]-1,3-di-O-tolylguanidine from human sigma 2 receptor/TMEM97 transfected in sigma 1 receptor knockout HEK293 cell membranes assessed as inhibition constant.

A further data set relates to Neuron. The data set can be described thus: Neuroprotective activity against MPP+ induced rat neurons at 10 uM pretreated with compond for 1 hr followed by MPP+ addition and measured after 48 hrs. The format is functional, cell-based. To be noted: time 49.0 hrs.
Data set [5] in a line: Metabolic stability in mouse liver microsome assessed as parent compound remaining at 1 uM measured after 1 hr in presence of NADPH regenerating system by UPLC-MS/MS analysis. The class given is ADME. To be noted: liver microsomes, read-out: Stability.
Data set [6] deals with T2, Sigma intracellular receptor 2. The data set can be described thus: Displacement of [3H]-1,3-di-O-tolylguanidine from human sigma 2 receptor/TMEM97 transfected in sigma 1 receptor knockout HEK293 cell membranes assessed as inhibition constant measured after 120 mins by microbeta scintillation counting analysis. Also on record: species or system Cell membrane.
Data set [7] can be described thus: Binding affinity to sigma1 receptor (unknown origin) assessed as inhibition constant.
The target of data set [8] is Voltage-gated inwardly rectifying potassium channel KCNH2 (Homo sapiens, UniProt Q12809). The experiment in a line: Inhibition of hERG expressed in CHO cells at holding potential of -80 mV measured for 15 seconds by whole cell patch clamp assay. The format is toxicity, cell-based. On the technique in general: Block of hERG is tested as a sign of cardiac risk.
Chain of Voltage-gated inwardly rectifying potassium channel KCNH2 (Q12809 whole entry): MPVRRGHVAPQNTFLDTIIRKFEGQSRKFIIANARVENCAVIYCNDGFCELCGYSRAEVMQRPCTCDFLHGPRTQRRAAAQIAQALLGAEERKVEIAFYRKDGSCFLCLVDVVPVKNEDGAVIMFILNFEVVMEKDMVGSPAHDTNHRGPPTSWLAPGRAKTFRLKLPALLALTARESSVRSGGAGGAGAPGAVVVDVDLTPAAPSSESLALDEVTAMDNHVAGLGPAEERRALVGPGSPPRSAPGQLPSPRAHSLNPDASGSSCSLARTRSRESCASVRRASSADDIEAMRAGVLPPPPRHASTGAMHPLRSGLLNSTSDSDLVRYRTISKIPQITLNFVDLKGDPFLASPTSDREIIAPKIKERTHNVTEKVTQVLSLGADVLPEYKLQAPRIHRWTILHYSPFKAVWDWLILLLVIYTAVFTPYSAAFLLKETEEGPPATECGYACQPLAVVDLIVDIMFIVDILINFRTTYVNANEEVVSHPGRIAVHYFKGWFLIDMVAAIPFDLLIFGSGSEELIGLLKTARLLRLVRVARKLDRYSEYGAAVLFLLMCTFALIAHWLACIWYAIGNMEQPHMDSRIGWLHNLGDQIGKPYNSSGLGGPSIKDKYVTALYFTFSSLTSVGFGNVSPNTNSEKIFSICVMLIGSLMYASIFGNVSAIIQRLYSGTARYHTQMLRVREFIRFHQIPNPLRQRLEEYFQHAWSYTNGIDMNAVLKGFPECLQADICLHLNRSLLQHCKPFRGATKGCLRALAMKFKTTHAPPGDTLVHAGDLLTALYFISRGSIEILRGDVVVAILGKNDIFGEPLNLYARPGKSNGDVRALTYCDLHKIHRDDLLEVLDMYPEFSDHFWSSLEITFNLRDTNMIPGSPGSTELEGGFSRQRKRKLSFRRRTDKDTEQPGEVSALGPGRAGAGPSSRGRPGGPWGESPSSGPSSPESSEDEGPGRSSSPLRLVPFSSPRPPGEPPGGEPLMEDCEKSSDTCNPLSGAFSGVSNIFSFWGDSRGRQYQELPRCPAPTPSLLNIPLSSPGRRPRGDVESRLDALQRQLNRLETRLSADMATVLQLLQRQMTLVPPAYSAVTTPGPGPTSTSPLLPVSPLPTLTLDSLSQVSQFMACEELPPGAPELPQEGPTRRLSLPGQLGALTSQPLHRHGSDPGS
Data set [9] concerns the target T1, Sigma non-opioid intracellular receptor 1. The experiment in a line: Binding affinity to sigma1 receptor (unknown origin) assessed as inhibition constant.

T1 sequence (Q99720 whole entry): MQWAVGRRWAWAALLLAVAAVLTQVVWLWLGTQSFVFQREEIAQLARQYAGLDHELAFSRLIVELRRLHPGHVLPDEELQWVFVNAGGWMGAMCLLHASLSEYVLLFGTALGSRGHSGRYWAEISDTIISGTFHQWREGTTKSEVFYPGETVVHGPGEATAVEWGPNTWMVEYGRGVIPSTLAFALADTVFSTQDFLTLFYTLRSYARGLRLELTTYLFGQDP

Turning to `CC(C)(C)Oc1cc(CCC(C)(C)N2Cc3ccc(S(C)(=O)=O)cc3C2)ccc1O`, the remaining at 1 h, 1 µM amounted to 37% in data set [1], 60% in data set [4] and 62% in data set [5]. The Ki in data set [2] was 0.023 µM; in data set [3], 0.008 µM; in data set [6] it was 0.005 µM; in data set [7] it was 0.063 µM. The Ratio Ki in the data set filed under Homo sapiens is 4.6. The result with Neuron was Active.

Turning to `CCc1ncc(-c2cc(C)no2)c(C2CCN(CC(=O)N3CCC4(CCOC4)CC3)CC2)n1`, the remaining at 1 h, 1 µM was found to be 92% in data set [1], 82% in data set [4] and 88% in data set [5]. For the same compound, the Ki worked out at 2.15 µM in data set [2] and 0.001 µM in data set [6]. This compound also displayed an IC50 in [8] of over 10 µM. Besides, the Ratio Ki in the data set filed under Homo sapiens worked out at 2150.

For `COc1cc2c(cc1OC)CN(CCCCn1c(=O)n(C)c3ccccc31)CC2`, the Ki came to 0.00043 µM in [3] and 0.56 µM in data set [9].

Consider `CCc1ncc(-c2cc(C)no2)c(C2CCCN(CC(=O)N3CCOCC3)CC2)n1` (stereo unspecified), for which the Ki in data set [2] is 0.237 µM; in [6] it was 0.131 µM.

Turning to `Cc1cc(-c2cncnc2C2CCN(CC(=O)N3CCOCC3)CC2)on1`, the Ki was over 1 µM in data set [2] and 0.457 µM in data set [6]. For the same compound, the Ratio Ki in the data set filed under Homo sapiens is over 2.

`CCc1ncc(-c2cccc(C)n2)c(C2CCN(CC(=O)N3CCOCC3)CC2)n1`: the results for the remaining at 1 h, 1 µM in [1], in data set [4] and in data set [5] were 96%, 83% and 76%, respectively. The figures for the Ki in data set [2] and in data set [6] were over 1 µM and 0.116 µM, respectively. Further, in the data set filed under Homo sapiens, the Ratio Ki is over 8.6.

Consider `Cc1cc(-c2cnc(C)nc2C2CCN(CC(=O)N3CCOCC3)CC2)on1`, for which the remaining at 1 h, 1 µM in [1] came to 100%; in data set [4] it was 104%; in [5] it was 87%. In addition, the Ki in data set [2] is 8.27 µM; in data set [6], 0.059 µM. The compound further yielded an IC50 in [8] of over 10 µM. In addition, the Ratio Ki in the data set filed under Homo sapiens turned out to be 140.

With `CCc1ncc(-c2cc(C)no2)c([C@@H]2CCCN(CC(=O)N3CCOCC3)C2)n1`, the Ki is over 10 µM in [2] and 0.164 µM in data set [6].

Take `CCc1ncc(-c2nccn2C)c(C2CCN(CC(=O)N3CCOCC3)CC2)n1`: the Ki in data set [2] is over 10 µM; in data set [6] it was 0.951 µM. For the same compound, the Ratio Ki in the data set listed under Homo sapiens is over 10.

On to `CCc1ncc(-c2cc(C)no2)c(C2CCN(CCN3CCOCC3)CC2)n1`, for which the remaining at 1 h, 1 µM in [1] was determined as 67%; in data set [4] it was 75%; in data set [5], 56%. In addition, the Ki was determined as 0.15 µM in data set [2] and 0.038 µM in data set [6]. The same compound returned an IC50 in data set [8] of over 10 µM.

Regarding `CCn1ncc(-c2cc(C)no2)c1C1CCN(CC(=O)N2CCOCC2)CC1`, the Ki in data set [2] and in data set [6] was over 1 µM each time.

For the compound `CCc1ncc(-c2cc(C)no2)c(C2CCN(CC(=O)N3CCCOCC3)CC2)n1`, the remaining at 1 h, 1 µM in data set [1] is 84%; in data set [4], 77%; in data set [5] it was 69%. For the same compound, the results for the Ki in [2] and in [6] were over 1 µM and 0.005 µM, respectively. This compound also showed an IC50 in data set [8] of over 10 µM. For the same compound, in the data set listed under Homo sapiens, the Ratio Ki is over 200.

With `CCc1ncc(-c2cc(C)no2)c(C2CCN(CC(=O)N3CCCCC3)CC2)n1`, the results for the remaining at 1 h, 1 µM in data set [1], in [4] and in data set [5] were 101%, 58% and 59%, respectively. The Ki in data set [2] worked out at 0.882 µM; in [6], 0.004 µM. This compound also showed an IC50 in data set [8] of 8.7 µM. In addition, the Ratio Ki in the data set listed under Homo sapiens stood at 220.

In the case of `O=C(CN1CCC(CN2Cc3ccccc3C2=O)CC1)c1ccc(F)cc1` [ROLUPERIDONE], the Ki in data set [9] was at least 1 µM.

In the case of `Cc1cc(-c2cnc(C(C)C)nc2C2CCN(CC(=O)N3CCOCC3)CC2)on1`, the remaining at 1 h, 1 µM in data set [1] stood at 81%; in [4], 80%; in [5], 65%. Also, the Ki was over 1 µM in data set [2] and 0.047 µM in data set [6]. Moreover, the IC50 in data set [8] was 3.6 µM. Also, in the data set filed under Homo sapiens, the Ratio Ki was over 21.

On to `CCc1ncc(-c2ccncc2)c(C2CCN(CC(=O)N3CCOCC3)CC2)n1`, for which the Ki stood at 0.807 µM in [2] and 0.727 µM in [6]. Also, in the data set listed under Homo sapiens, the Ratio Ki came out at 1.1.

In the case of `CCc1ncc(-c2cc(C)no2)c(C2CCN(CC(=O)N3CCCN(C)CC3)CC2)n1`, the remaining at 1 h, 1 µM in data set [1] worked out at 97%; in [4], 85%; in [5], 83%. Also, the results for the Ki in data set [2] and in data set [6] were over 1 µM and 0.098 µM, respectively. The compound further showed an IC50 in [8] of over 10 µM. Further, the Ratio Ki in the data set listed under Homo sapiens is over 10.

On to `CCc1ncc(-c2ccccn2)c(C2CCN(CC(=O)N3CCOCC3)CC2)n1`, for which the Ki is over 1 µM in data set [2] and 0.319 µM in data set [6]. Moreover, in the data set filed under Homo sapiens, the Ratio Ki was over 3.

As to `Cc1cc(-c2cnc(C(F)(F)F)nc2C2CCN(CC(=O)N3CCOCC3)CC2)on1`, the remaining at 1 h, 1 µM in data set [1] amounted to 71%; in data set [4], 78%; in data set [5], 77%. Further, the Ki was over 1 µM in data set [2] and 0.006 µM in [6]. The same compound displayed an IC50 in data set [8] of over 10 µM. Also, the Ratio Ki in the data set filed under Homo sapiens was over 166.

In the case of `CCc1ncc(-c2cc(C)no2)c(C2CCN(CCC(=O)N3CCOCC3)CC2)n1`, the remaining at 1 h, 1 µM came to 95% in [1], 86% in data set [4] and 94% in data set [5]. Further, the Ki in data set [2] was over 1 µM; in data set [6] it was 0.062 µM. The same compound displayed an IC50 in data set [8] of 4.5 µM.

In the case of `Cc1cc(-c2cnc(C3CC3)nc2C2CCN(CC(=O)N3CCOCC3)CC2)on1`, the values for the remaining at 1 h, 1 µM in [1], in data set [4] and in data set [5] were 84%, 86% and 97%, respectively. For the same compound, the Ki in data set [2] was determined as 0.789 µM; in [6], 0.001 µM. In addition, the midpoint of inhibition in data set [8], the IC50, lay at 4.2 µM. In the data set filed under Homo sapiens, the Ratio Ki worked out at 789.

As to `CCc1ncc(-c2cc(C)no2)c(C2CCN(CC(=O)N3CCOCC3)C2)n1` (stereo unspecified), the Ki in data set [2] and in data set [6] was over 1 µM in each case.

With `Cc1cc(-c2cnc(C)nc2C2CCN(C(=O)CN3CCOCC3)CC2)on1`, the Ki in data set [2] and in data set [6] was over 1 µM throughout.

`CCc1ncc(-c2cc(C)no2)c([C@H]2CCCN(CC(=O)N3CCOCC3)C2)n1`: the Ki is over 10 µM in [2] and 0.788 µM in data set [6].

As for `CCCc1ncc(-c2cc(C)no2)c(C2CCN(CC(=O)N3CCOCC3)CC2)n1`, the remaining at 1 h, 1 µM in [1] amounted to 90%; in data set [4], 89%; in [5], 89%. Further, the Ki in [2] is over 1 µM; in data set [6], 0.061 µM. Also, 5.4 µM corresponded to half-maximal inhibition in [8] (IC50). In the data set filed under Homo sapiens, the Ratio Ki is over 16.

On to `CCn1cc(-c2cc(C)no2)c(C2CCN(CC(=O)N3CCOCC3)CC2)n1`, for which the results for the Ki in data set [2] and in data set [6] were over 1 µM and 0.496 µM, respectively.

On to `OCCCN1CCCC2CC1c1cc(-c3ccc(C(F)(F)F)cc3)ccc12` (stereo unspecified), for which the values for the Ki in [3] and in [9] were 0.046 µM and 1.28 µM, respectively.
